From the supplement of paper PMC11451515

Tested on: NOMO1
Experiment: cell viability relative to DMSO control; higher = less cytotoxic
Settings: 48 h
Method in brief: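 Viability, reported as a per-plate percentage of DMSO wells with cell-free wells as background, came from CellTiter-Glo One luminescence. Reading took place after 48 h at 37°C. Before that, NOMO1 or SEM (500 cells/well) or P12-Ichikawa (1000 cells/well) leukemia cells, adapted for at least four passages in each medium, were seeded in 1536-well plates (5 μl) and pin-dosed with library compounds in DMSO, 47 μM to 0.79 nM over 11 threefold points.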

[1] = RPMI 5 mM glucose + 10% FBS, 0.000781 µM
[2] = RPMI 5 mM glucose + 10% FBS, 0.00234 µM
[3] = RPMI 5 mM glucose + 10% FBS, 0.00702 µM
[4] = RPMI 5 mM glucose + 10% FBS, 0.0211 µM
[5] = RPMI 5 mM glucose + 10% FBS, 0.0632 µM
[6] = RPMI 5 mM glucose + 10% FBS, 0.19 µM
[7] = RPMI 5 mM glucose + 10% FBS, 0.569 µM
[8] = RPMI 5 mM glucose + 10% FBS, 1.71 µM
[9] = RPMI 5 mM glucose + 10% FBS, 5.12 µM
[10] = RPMI 5 mM glucose + 10% FBS, 15.4 µM
[11] = RPMI 5 mM glucose + 10% FBS, 46.1 µM
[12] = HPLM + 10% dialyzed FBS, 0.000781 µM
[13] = HPLM + 10% dialyzed FBS, 0.00234 µM
[14] = HPLM + 10% dialyzed FBS, 0.00702 µM
[15] = HPLM + 10% dialyzed FBS, 0.0211 µM
[16] = HPLM + 10% dialyzed FBS, 0.0632 µM
[17] = HPLM + 10% dialyzed FBS, 0.19 µM
[18] = HPLM + 10% dialyzed FBS, 0.569 µM
[19] = HPLM + 10% dialyzed FBS, 1.71 µM
[20] = HPLM + 10% dialyzed FBS, 5.12 µM
[21] = HPLM + 10% dialyzed FBS, 15.4 µM
[22] = HPLM + 10% dialyzed FBS, 46.1 µM
[23] = RPMI 5 mM glucose + 10% dialyzed FBS, 0.000781 µM
[24] = RPMI 5 mM glucose + 10% dialyzed FBS, 0.00234 µM
[25] = RPMI 5 mM glucose + 10% dialyzed FBS, 0.00702 µM
[26] = RPMI 5 mM glucose + 10% dialyzed FBS, 0.0211 µM
[27] = RPMI 5 mM glucose + 10% dialyzed FBS, 0.0632 µM
[28] = RPMI 5 mM glucose + 10% dialyzed FBS, 0.19 µM
[29] = RPMI 5 mM glucose + 10% dialyzed FBS, 0.569 µM
[30] = RPMI 5 mM glucose + 10% dialyzed FBS, 1.71 µM
[31] = RPMI 5 mM glucose + 10% dialyzed FBS, 5.12 µM
[32] = RPMI 5 mM glucose + 10% dialyzed FBS, 15.4 µM
[33] = RPMI 5 mM glucose + 10% dialyzed FBS, 46.1 µM

## CC(NC(C)(C)C)C(=O)c1cccc(Cl)c1 (stereo unspecified)
[1]
  cell viability: 112%
[2]
  cell viability: 124%
[3]
  cell viability: 115%
[4]
  cell viability: 120%
[5]
  cell viability: 133%
[6]
  cell viability: 127%
[7]
  cell viability: 113%
[8]
  cell viability: 115%
[9]
  cell viability: 119%
[10]
  cell viability: 128%
[11]
  cell viability: 113%

## NC(=O)[C@H]1CCS[C@@H]2C[C@]3(CCCN3C(=O)Cc3ccc(NC(=O)COc4ccc(Cl)cc4Cl)cc3)C(=O)N12
[12]
  cell viability: 111%
[13]
  cell viability: 138%
[14]
  cell viability: 123%
[15]
  cell viability: 134%
[16]
  cell viability: 139%
[17]
  cell viability: 123%
[18]
  cell viability: 102%
[19]
  cell viability: 36.8%
[20]
  cell viability: 39.9%
[21]
  cell viability: 42.3%
[22]
  cell viability: 52.3%
[1]
  cell viability: 107%
[2]
  cell viability: 129%
[3]
  cell viability: 121%
[4]
  cell viability: 131%
[5]
  cell viability: 138%
[6]
  cell viability: 131%
[7]
  cell viability: 119%
[8]
  cell viability: 103%
[9]
  cell viability: 26.1%
[10]
  cell viability: 26.6%
[11]
  cell viability: 38.9%

## O=C/1NC(=O)C(=C1C2=CN=C3C=CC=C[N]23)/C4=C[N]5CCN(CC6=C5C4=CC=C6)C(=O)N7CCOCC7
[1]
  cell viability: 109%
[2]
  cell viability: 121%
[3]
  cell viability: 137%
[4]
  cell viability: 136%
[5]
  cell viability: 140%
[6]
  cell viability: 146%
[7]
  cell viability: 144%
[8]
  cell viability: 127%
[9]
  cell viability: 144%
[10]
  cell viability: 128%
[11]
  cell viability: 144%

## CN(C)c1ccc2nc3ccc(N(C)C)cc3[s+]c2c1
[12]
  cell viability: 115%
[13]
  cell viability: 94.5%
[14]
  cell viability: 122%
[15]
  cell viability: 97.9%
[16]
  cell viability: 106%
[17]
  cell viability: 90.7%
[18]
  cell viability: 102%
[19]
  cell viability: 91.1%
[20]
  cell viability: 73.2%
[21]
  cell viability: 25.9%
[22]
  cell viability: 12.1%
[1]
  cell viability: 96%
[2]
  cell viability: 91.9%
[3]
  cell viability: 89.2%
[4]
  cell viability: 92.1%
[5]
  cell viability: 93.4%
[6]
  cell viability: 93.6%
[7]
  cell viability: 100%
[8]
  cell viability: 86.4%
[9]
  cell viability: 78.1%
[10]
  cell viability: 7.62%
[11]
  cell viability: 3.06%
[23]
  cell viability: 102%
[24]
  cell viability: 99.7%
[25]
  cell viability: 99.6%
[26]
  cell viability: 87.4%
[27]
  cell viability: 94.2%
[28]
  cell viability: 86.7%
[29]
  cell viability: 102%
[30]
  cell viability: 86.5%
[31]
  cell viability: 65%
[32]
  cell viability: 10.1%
[33]
  cell viability: 3.9%

## [O-]C(=O)C/1=N/C(=O)NC(=O)N1
[12]
  cell viability: 87.7%
[13]
  cell viability: 108%
[14]
  cell viability: 92.9%
[15]
  cell viability: 96.9%
[16]
  cell viability: 101%
[17]
  cell viability: 95.1%
[18]
  cell viability: 86.3%
[19]
  cell viability: 96.9%
[20]
  cell viability: 85.4%
[21]
  cell viability: 83.4%
[22]
  cell viability: 88.9%
[1]
  cell viability: 93.5%
[2]
  cell viability: 96.8%
[3]
  cell viability: 99.9%
[4]
  cell viability: 88.9%
[5]
  cell viability: 92.8%
[6]
  cell viability: 91.8%
[7]
  cell viability: 86.3%
[8]
  cell viability: 91.3%
[9]
  cell viability: 85.4%
[10]
  cell viability: 80.9%
[11]
  cell viability: 93.1%
[23]
  cell viability: 90.2%
[24]
  cell viability: 93.2%
[25]
  cell viability: 88.2%
[26]
  cell viability: 86.2%
[27]
  cell viability: 90.8%
[28]
  cell viability: 92.8%
[29]
  cell viability: 81.1%
[30]
  cell viability: 78.5%
[31]
  cell viability: 79.9%
[32]
  cell viability: 77%
[33]
  cell viability: 81.8%

## CC[N+](CC)(CC)CCOc1cccc(OCC[N+](CC)(CC)CC)c1OCC[N+](CC)(CC)CC
[1]
  cell viability: 106%
[2]
  cell viability: 118%
[3]
  cell viability: 108%
[4]
  cell viability: 118%
[5]
  cell viability: 136%
[6]
  cell viability: 110%
[7]
  cell viability: 98%
[8]
  cell viability: 98.9%
[9]
  cell viability: 104%
[10]
  cell viability: 112%
[11]
  cell viability: 75.7%
[23]
  cell viability: 116%
[24]
  cell viability: 118%
[25]
  cell viability: 115%
[26]
  cell viability: 109%
[27]
  cell viability: 127%
[28]
  cell viability: 114%
[29]
  cell viability: 99.4%
[30]
  cell viability: 100%
[31]
  cell viability: 111%
[32]
  cell viability: 101%
[33]
  cell viability: 91%

## C=C1C(=O)OC(CCCCCCCC)C1C(=O)O (stereo unspecified)
[12]
  cell viability: 107%
[13]
  cell viability: 125%
[14]
  cell viability: 123%
[15]
  cell viability: 135%
[16]
  cell viability: 135%
[17]
  cell viability: 139%
[18]
  cell viability: 130%
[19]
  cell viability: 125%
[20]
  cell viability: 104%
[21]
  cell viability: 136%
[22]
  cell viability: 118%
[1]
  cell viability: 113%
[2]
  cell viability: 114%
[3]
  cell viability: 112%
[4]
  cell viability: 122%
[5]
  cell viability: 131%
[6]
  cell viability: 127%
[7]
  cell viability: 119%
[8]
  cell viability: 132%
[9]
  cell viability: 129%
[10]
  cell viability: 127%
[11]
  cell viability: 124%
[23]
  cell viability: 109%
[24]
  cell viability: 123%
[25]
  cell viability: 113%
[26]
  cell viability: 130%
[27]
  cell viability: 135%
[28]
  cell viability: 136%
[29]
  cell viability: 125%
[30]
  cell viability: 120%
[31]
  cell viability: 121%
[32]
  cell viability: 129%
[33]
  cell viability: 120%

## OC1=CC=C(C=C1)\C2=C\OC3=C(C(=CC(=C3)O)O)C2=O
[12]
  cell viability: 110%
[13]
  cell viability: 112%
[14]
  cell viability: 117%
[15]
  cell viability: 120%
[16]
  cell viability: 116%
[17]
  cell viability: 122%
[18]
  cell viability: 124%
[19]
  cell viability: 113%
[20]
  cell viability: 107%
[21]
  cell viability: 137%
[22]
  cell viability: 117%
[1]
  cell viability: 108%
[2]
  cell viability: 111%
[3]
  cell viability: 107%
[4]
  cell viability: 117%
[5]
  cell viability: 104%
[6]
  cell viability: 115%
[7]
  cell viability: 108%
[8]
  cell viability: 109%
[9]
  cell viability: 112%
[10]
  cell viability: 123%
[11]
  cell viability: 110%
[23]
  cell viability: 94.7%
[24]
  cell viability: 113%
[25]
  cell viability: 99.8%
[26]
  cell viability: 110%
[27]
  cell viability: 118%
[28]
  cell viability: 117%
[29]
  cell viability: 107%
[30]
  cell viability: 108%
[31]
  cell viability: 118%
[32]
  cell viability: 115%
[33]
  cell viability: 103%

## CC(=O)N[C@@H]1[C@@H](NC(N)=N)\C=C(/O[C@H]1[C@H](O)[C@H](O)CO)C(O)=O
[12]
  cell viability: 84.9%
[13]
  cell viability: 105%
[14]
  cell viability: 116%
[15]
  cell viability: 119%
[16]
  cell viability: 127%
[17]
  cell viability: 119%
[18]
  cell viability: 122%
[19]
  cell viability: 120%
[20]
  cell viability: 122%
[21]
  cell viability: 115%
[22]
  cell viability: 101%
[1]
  cell viability: 102%
[2]
  cell viability: 114%
[3]
  cell viability: 106%
[4]
  cell viability: 111%
[5]
  cell viability: 113%
[6]
  cell viability: 113%
[7]
  cell viability: 118%
[8]
  cell viability: 120%
[9]
  cell viability: 111%
[10]
  cell viability: 121%
[11]
  cell viability: 113%
[23]
  cell viability: 100%
[24]
  cell viability: 106%
[25]
  cell viability: 114%
[26]
  cell viability: 121%
[27]
  cell viability: 117%
[28]
  cell viability: 118%
[29]
  cell viability: 115%
[30]
  cell viability: 116%
[31]
  cell viability: 106%
[32]
  cell viability: 134%
[33]
  cell viability: 124%
